Experimental data as given in ChEMBL document CHEMBL3797071, “Repurposing strategies for tropical disease drug discovery” (Bioorg Med Chem Lett, 2016).

Assays:
[1] = Inhibition of Trypanosoma brucei LeuRS assessed as formation of stable tRNA(Leu)-compound adduct in editing site of enzyme
Trypanosoma brucei = assay: Antiparasitic activity against Trypanosoma brucei […]; assay type: functional, organism-based
L929 = assay: Cytotoxicity against mouse L929 cells; assay type: cell-based
Leishmania braziliensis = assay: Antiparasitic activity against promastigote stage of Leishmania braziliensis MHOM/BR/2001/BA788 infected in BALB/c mouse assessed as reduction in parasite load at 20 mg/kg, ip administered for 15 days measured after 6 weeks by limiting dillution method; assay type: functional; design: scale not given: the % may be the effect or the level left
Leishmania chagasi [2] = assay: Antiparasitic activity against amastigote stage of Leishmania chagasi MHOM/BR/1972/LD infected in golden hamster assessed as reduction in parasite load at 20 mg/kg, ip administered for 15 days measured after 4 weeks by limiting dillution method; assay type: functional; design: scale not given: the % may be the effect or the level left
Leishmania chagasi [3] = assay: Antiparasitic activity against amastigote stage of Leishmania chagasi MHOM/BR/1972/LD infected in golden hamster assessed as golden hamster survival rate at 20 mg/kg, ip after 18 weeks by limiting dillution method; assay type: functional
Brugia pahangi [4] = assay: Antifilarial activity against Brugia pahangi infected in gerbils assessed as reduction in worm burden at 5 mg/kg, bid in weekdays for 28 days; assay type: functional, organism-based; design: scale not given: the % may be the effect or the level left
Brugia pahangi [5] = assay: Antifilarial activity against Brugia pahangi infected in gerbils assessed as reduction in worm burden at 5 mg/kg, sid in weekends for 28 days; assay type: functional, organism-based; design: scale not given: the % may be the effect or the level left
[6] = Selectivity ratio of IC50 for Onchocerca ochengi to IC50 for microfilariae of Loa loa; assay type: functional

Row | Molecule | IC50 [1] [µM] | EC50 (Trypanosoma brucei) [µM] | EC50 (L929) [µM] | other results
1 | CCOC(=O)COc1ccc2c(c1)B(O)OC2 | 3.5 | 0.72 | > 40 | 
2 | CC(=O)C(C)(C)Oc1ccc2c(c1)B(O)OC2 | 5 | 0.37 | > 40 | 
3 | CC/C(=C(\c1ccccc1)c1ccc(OCCN(C)C)cc1)c1ccccc1 [TAMOXIFEN] |  |  |  | Activity (Leishmania braziliensis): 95%; Activity (Leishmania chagasi [2]): 95%; Activity (Leishmania chagasi [3]): 100%
4 | OB1OCc2cc(F)ccc21 [TAVABOROLE] | 22.1 |  |  | 
5 | AURANOFIN |  |  |  | Activity (Brugia pahangi [4]): 58%; Activity (Brugia pahangi [5]): 91%; Ratio IC50 [6]: 43
